Results published in patent US12534460B2, “LSD salt crystal forms” (Mind Medicine, Inc., priority 2021, dated 2026).
Where two headings read alike, the source gives them in different places.

Assays:
[1] = Accelerated storage at 40° C./75% RH for 14 days; type: physicochemical; settings: for XRPD of Output / Nature of solid: 40° C./75% RH, 14 days, unsealed vials; for XRPD of Output: physical stability; for Nature of solid: visual observation for deliquescence; for change in form after stress: after stress at 40° C./75 RH
Excerpt: Samples were visually observed for signs of deliquescence and analysed by XRPD post stressing for physical stability and HPLC for chemical stability.

[2] = Heat cycled maturation and solubility assessment (liquors analysed by HPLC versus a standard)
[3] = Compression of amorphous solid, analysis by XRPD; type: physicochemical; settings: force of 10^5N for approximately 24 hours
Procedure: Experimental: D-LSD amorphous oxalate (Lot: DC1134, ˜50 mg) was pressed with a force of 10^5N for approximately 24 hours. The solids were then removed from the press for analysis by XRPD.

CCN(CC)C(=O)C1C=C2c3cccc4[nH]cc(c34)CC2N(C)C1.O=C(O)C(=O)O [D-LSD oxalate Pattern B]
XRPD of Output [1]: oxalate Pattern B
Nature of solid [1]: solid
change in form after stress [1]: did not show a change in form

Br.CCN(CC)C(=O)[C@@H]1C=C2c3cccc4[nH]cc(c34)C[C@H]2N(C)C1 [D-LSD amorphous HBr, D-LSD hydrobromide amorphous salt]
solubility ([2]; 1,4-dioxane, at 40° C., HBr salt): > 100000 µg/mL
solubility ([2]; EtOH, at 25° C., HBr salt): > 100000 µg/mL
solubility ([2]; IPA/water (95:5 v/v), at 40° C., HBr salt): > 100000 µg/mL
solubility ([2]; MEK, at 25° C., HBr salt): > 100000 µg/mL
solubility ([2]; MeOH, at 25° C., HBr salt): > 200000 µg/mL
solubility ([2]; THF/water (95:5 v/v), at 25° C., HBr salt): > 200000 µg/mL
solubility ([2]; iPrOAc/water (98:2 v/v), at 40° C., HBr salt): > 100000 µg/mL
solubility ([2]; nitromethane, at 25° C., HBr salt): > 100000 µg/mL
Solubility 25° C. ([2]; solvent EtOAc, input D-LSD amorphous HBr): 2630 µg/mL
Solubility 25° C. ([2]; solvent IPAC*, input D-LSD amorphous HBr): 4190 µg/mL
Solubility 25° C. ([2]; solvent MIBK, input D-LSD amorphous HBr): 16400 µg/mL
Solubility 25° C. ([2]; solvent MeCN, input D-LSD amorphous HBr): 8680 µg/mL
Solubility 25° C. ([2]; solvent TBME*, input D-LSD amorphous HBr): 9840 µg/mL
Solubility 25° C. ([2]; solvent chlorobenzene, input D-LSD amorphous HBr): 3120 µg/mL
Solubility 25° C. ([2]; solvent heptane, input D-LSD amorphous HBr): 50 µg/mL
Solubility 25° C. ([2]; solvent toluene, input D-LSD amorphous HBr): 3910 µg/mL
Solubility 25° C. ([2]; solvent water, input D-LSD amorphous HBr): 25100 µg/mL

CCN(CC)C(=O)[C@@H]1C=C2c3cccc4[nH]cc(c34)C[C@H]2N(C)C1.O=S(=O)(O)O [D-LSD Sulfate Amorphous Salt, D-LSD sulfate amorphous salt]
solubility ([2]; EtOH, at 25° C., sulfate salt): > 100000 µg/mL
solubility ([2]; IPA/water (95:5), at 40° C., sulfate salt): > 100000 µg/mL
solubility ([2]; MeOH, at 25° C., sulfate salt): > 200000 µg/mL
solubility ([2]; iPrOAc/water (98:2), at 40° C., sulfate salt): > 100000 µg/mL

CCN(CC)C(=O)[C@@H]1C=C2c3cccc4[nH]cc(c34)C[C@H]2N(C)C1.O=P(O)(O)O [D-LSD phosphate Pattern C, D-LSD phosphoric acid salt Pattern C]
XRPD of Output [1]: phosphate Pattern C
Nature of solid [1]: solid
change in form after stress [1]: did not show a change in form

CCN(CC)C(=O)[C@@H]1C=C2c3cccc4[nH]cc(c34)C[C@H]2N(C)C1.O=C(O)C(=O)O [Amorphous D-LSD oxalate, amorphous D-LSD oxalate salt]
form by XRPD after compression [3]: remained as an amorphous solid
solubility ([2]; EtOH, at 25° C., oxalate salt): > 200000 µg/mL
solubility ([2]; MeOH, at 25° C., oxalate salt): > 200000 µg/mL
Solubility 25° C. ([2]; solvent 1,4-dioxane, input amorphous D-LSD oxalate): 9200 µg/mL
Solubility 25° C. ([2]; solvent Chlorobenzene, input amorphous D-LSD oxalate): 2300 µg/mL
Solubility 25° C. ([2]; solvent EtOAc, input amorphous D-LSD oxalate): 3420 µg/mL
Solubility 25° C. ([2]; solvent IP AC, input amorphous D-LSD oxalate): 4630 µg/mL
Solubility 25° C. ([2]; solvent MEK, input amorphous D-LSD oxalate): 2610 µg/mL
Solubility 25° C. ([2]; solvent MIBK, input amorphous D-LSD oxalate): 1600 µg/mL
Solubility 25° C. ([2]; solvent MeCN, input amorphous D-LSD oxalate): 5490 µg/mL
Solubility 25° C. ([2]; solvent Me—THF, input amorphous D-LSD oxalate): 6140 µg/mL
Solubility 25° C. ([2]; solvent THF:water (95:5), input amorphous D-LSD oxalate): 8670 µg/mL
Solubility 25° C. ([2]; solvent nitromethane, input amorphous D-LSD oxalate): 6490 µg/mL

CCN(CC)C(=O)[C@@H]1C=C2c3cccc4[nH]cc(c34)C[C@H]2N(C)C1.O=C(O)C(O)C(O)C(=O)O [D-LSD D-tartrate Pattern A, D-LSD D-tartaric acid salt]
reversibility of water uptake as relative humidity decreases (DVS profile, only minor hysteresis): reversible
weight lost during the initial desorption cycle ([…]): 0.6 wt %
water absorbed during the subsequent sorption cycle (at 90% RH): 1%
water absorbed during the subsequent sorption cycle (up to 80% RH): 0.65%
